Assay results: patent publication US12077503B2, “Substituted cyclic amides and their use as herbicides” (FMC CORPORATION, priority 2015, dated 2024)

What was measured:
Format in all cases: in vivo
[1] = test system: pigweed (Amaranthus retroflexus); test: Test A postemergence
Text: (§1) Seeds of plant species selected from barnyardgrass (Echinochloa crus-galli), Kochia (Kochia scoparia), ragweed (common ragweed, Ambrosia elatior), ryegrass, Italian (Italian ryegrass, Lolium multiflorum), crabgrass, large (Digitaria sanguinalis), giant foxtail (Setaria faberii), green foxtail (Setaria viridis), morningglory (Ipomoea spp.), pigweed (Amaranthus retroflexus), velvetleaf (Abutilon theophrasti), wheat (Triticum aestivum), and corn (Zea mays) were planted into a blend of loam soil and sand and treated preemergence with a directed soil spray using test chemicals formulated in anon-phytotoxic solvent mixture which included a surfactant.
(§2) At the same time, plants selected from these crop and weed species and also blackgrass (Alopecurus myosuroides), and Galium (catchweed bedstraw, Galium aparine) were planted in pots containing the same blend of loam soil and sand and treated with postemergence applications of test chemicals formulated in the same manner. Plants ranged in height from 2 to 10 cm and were in the one- to two-leaf stage for the postemergence treatment. Treated plants and untreated controls were maintained in a greenhouse for approximately 10 d, after which time all treated plants were compared to untreated controls and visually evaluated for injury. Plant response ratings, summarized in Table A, are based on a 0 to 100 scale where 0 is no effect and 100 is complete control. A dash (-) response means no test result.

Kochia (Kochia scoparia) [2] = test: Test A postemergence
Text: as §1, §2

[3] = test system: Galium (catchweed bedstraw, Galium aparine); test: Test A postemergence
Text: as §1, §2

[4] = test system: giant foxtail (Setaria faberii); test: Test A postemergence
Text: as §1, §2

corn (Zea mays) = test: Test A postemergence
Text: as §1, §2

[5] = test system: wheat (Triticum aestivum); test: Test A postemergence
Text: as §1, §2

[6] = test system: barnyardgrass (Echinochloa crus-galli); test: Test A postemergence
Text: as §1, §2

[7] = test system: blackgrass (Alopecurus myosuroides); test: Test A postemergence
Text: as §1, §2

[8] = test system: ragweed (common ragweed, Ambrosia elatior); test: Test A postemergence
Text: as §1, §2

[9] = test system: ryegrass, Italian (Italian ryegrass, Lolium multiflorum); test: Test A postemergence
Text: as §1, §2

[10] = test system: pigweed (Amaranthus retroflexus); test: Test A preemergence
Text: as §1, §2

Kochia (Kochia scoparia) [11] = test: Test A preemergence
Text: as §1, §2

[12] = test system: giant foxtail (Setaria faberii); test: Test A preemergence
Text: as §1, §2

[13] = test system: barnyardgrass (Echinochloa crus-galli); test: Test A preemergence
Text: as §1, §2

[14] = test system: ragweed (common ragweed, Ambrosia elatior); test: Test A preemergence
Text: as §1, §2

[15] = test system: ryegrass, Italian (Italian ryegrass, Lolium multiflorum); test: Test A preemergence
Text: as §1, §2

rice (Oryra sativa) = test: Test B flooded paddy test; conditions: Flood, 250 g ai/ha; 0 to 100 scale where 0 is no effect and 100 is complete control; 13 to 15 d
Protocol: (§3) Plant species in the flooded paddy test selected from rice (Oryra sativa), sedge, umbrella (small-flower umbrella sedge, Cyperus difformis), ducksalad (Heteranthera limosa), and barnyardgrass (Echinochloa crus-galli) were grown to the 2-leaf stage for testing. At time of treatment, test pots were flooded to 3 cm above the soil surface, treated by application of test compounds directly to the paddy water, and then maintained at that water depth for the duration of the test. Treated plants and controls were maintained in a greenhouse for 13 to 15 d, after which time all species were compared to controls and visually evaluated. Plant response ratings, summarized in Table B, are based on a scale of 0 to 100 where 0 is no effect and 100 is complete control. A dash (-) response means no test result.

[16] = test system: sedge, umbrella (small-flower umbrella sedge, Cyperus difformis); test: Test B flooded paddy test; conditions: Flood, 250 g ai/ha
Protocol: as §3

[17] = test system: ducksalad (Heteranthera limosa); test: Test B flooded paddy test; conditions: Flood, 250 g ai/ha; 0 to 100 scale where 0 is no effect and 100 is complete control; 13 to 15 d
Protocol: as §3

[18] = test system: barnyardgrass (Echinochloa crus-galli); test: Test B flooded paddy test; conditions: Flood, 250 g ai/ha; 0 to 100 scale where 0 is no effect and 100 is complete control; 13 to 15 d
Protocol: as §3

[19] = 125 g ai/ha, postemergence, visual rating after approx. 10 d, 0 to 100 scale (0 no effect, 100 complete control)
[20] = Postemergence, 500 g ai/ha, 0 to 100 scale where 0 is no effect and 100 is complete control
[21] = 125 g ai/ha, Preemergence, visual injury after approximately 10 d, 0 to 100 scale where 0 is no effect and 100 is complete control
[22] = Preemergence, 500 g ai/ha, visual injury approx. 10 d
[23] = 125 g ai/ha, postemergence, visual injury after approximately 10 d, 0 to 100 scale (0 no effect, 100 complete control)
[24] = 500 g ai/ha, postemergence, visual injury, 0 to 100 scale (0 no effect, 100 complete control), approx. 10 d
[25] = 125 g ai/ha, preemergence, visual rating after approx. 10 d, 0 to 100 scale where 0 is no effect and 100 is complete control
[26] = 500 g ai/ha, preemergence, 0 to 100 scale, 0 = no effect, 100 = complete control

With O=C1NCC(c2cc(Cl)sc2Cl)C1C(=O)Nc1cccc(F)c1F (stereo not drawn) [Compound 601] the “Plant response rating, Pigweed” value [1, 19] was 0, the “Plant response rating, Pigweed” value [1, 20] was 0 and the “Plant response rating, Kochia” value (Kochia (Kochia scoparia) [2]; [19]) was 0. For the same molecule, the “Plant response rating, Kochia” value (Kochia (Kochia scoparia) [2]; [20]) was 0, the “Plant response rating, Galium” value [3, 19] was 0 and the “Plant response rating, Galium” value [3, 20] was 0. For the same molecule, the “Plant response rating, Foxtail, Giant” value [4, 19] was 20, the “Plant response rating, Foxtail, Giant” value [4, 20] was 50 and the “Plant response rating, Corn” value (corn (Zea mays); [19]) was 0. For the same molecule, the “Plant response rating, Corn” value (corn (Zea mays); [20]) was 20, the “Plant response rating, Wheat” value [5, 19] was 0 and the “Plant response rating, Wheat” value [5, 20] was 20. For the same molecule, the “Plant response rating, Barnyardgrass” value [6, 19] was 20, the “Plant response rating, Barnyardgrass” value [6, 20] was 70 and the “Plant response rating, Blackgrass” value [7, 19] was 0. For the same molecule, the “Plant response rating, Blackgrass” value [7, 20] was 0, the “Plant response rating, Ragweed” value [8, 19] was 0 and the “Plant response rating, Ragweed” value [8, 20] was 0. For the same molecule, the “Plant response rating, Ryegrass, Italian” value [9, 19] was 0, the “Plant response rating, Ryegrass, Italian” value [9, 20] was 0 and the “Plant response rating, Pigweed” value [10, 21] was 0. For the same molecule, the “Pigweed plant response rating (0 to 100 scale, 0 is no effect, 100 is complete control)” value [10, 22] was 0, the “Plant response rating, Kochia” value (Kochia (Kochia scoparia) [11]; [21]) was 0 and the “Kochia plant response rating (0 to 100 scale, 0 is no effect, 100 is complete control)” value (Kochia (Kochia scoparia) [11]; [22]) was 0. For the same molecule, the “Plant response rating, Foxtail, Giant” value [12, 21] was 70, the “Foxtail, Giant plant response rating (0 to 100 scale, 0 is no effect, 100 is complete control)” value [12, 22] was 80 and the “Plant response rating, Barnyardgrass” value [13, 21] was 60. The “Barnyardgrass plant response rating (0 to 100 scale, 0 is no effect, 100 is complete control)” value [13, 22] was 80, the “Plant response rating, Ragweed” value [14, 21] was 0 and the “Ragweed plant response rating (0 to 100 scale, 0 is no effect, 100 is complete control)” value [14, 22] was 0. The “Plant response rating, Ryegrass, Italian” value [15, 21] was 0, the “Ryegrass, Italian plant response rating (0 to 100 scale, 0 is no effect, 100 is complete control)” value [15, 22] was 0 and the “Plant response rating, Rice” value (rice (Oryra sativa)) was 0. For the same molecule, the “Plant response rating, Sedge, Umbrella” value ([16]; 0 to 100 scale where 0 is no effect and 100 is complete control, 13 to 15 d) was 0, the “Plant response rating, Ducksalad” value [17] was 75 and the “Plant response rating, Barnyardgrass” value [18] was 40.

In the case of CN1CC(c2ccc(C(C)(F)F)cc2)C(C(=O)Nc2ccccc2S(C)(=O)=O)C1=O (stereo not drawn) [Compound 692], the “Plant response rating, Pigweed” value [1, 23] is reported as 40, the “Plant response rating, Pigweed” value [1, 24] is reported as 50 and the “Plant response rating, Kochia” value (Kochia (Kochia scoparia) [2]; [23]) is reported as 40. For the same molecule, the “Plant response rating, Kochia” value (Kochia (Kochia scoparia) [2]; [24]) was 60, the “Plant response rating, Galium” value [3, 23] was 0 and the “Plant response rating, Galium” value [3, 24] was 60. The “Plant response rating, Foxtail, Giant” value [4, 23] was 70, the “Plant response rating, Foxtail, Giant” value [4, 24] was 80 and the “Plant response rating, Corn” value (corn (Zea mays); [23]) was 0. For the same molecule, the “Plant response rating, Corn” value (corn (Zea mays); [24]) was 50, the “Plant response rating, Wheat” value [5, 23] was 0 and the “Plant response rating, Wheat” value [5, 24] was 50. The “Plant response rating, Barnyardgrass” value [6, 19] was 70, the “Plant response rating, Barnyardgrass” value [6, 24] was 80 and the “Plant response rating, Blackgrass” value [7, 19] was 50. The “Plant response rating, Blackgrass” value [7, 24] was 60, the “Plant response rating, Ragweed” value [8, 23] was 0 and the “Plant response rating, Ragweed” value [8, 24] was 30. For the same molecule, the “Plant response rating, Ryegrass, Italian” value [9, 23] was 50, the “Plant response rating, Ryegrass, Italian” value [9, 24] was 60 and the “Plant response rating, Pigweed” value [10, 25] was 80. For the same molecule, the “Plant response rating, Pigweed” value [10, 26] was 90, the “Plant response rating, Kochia” value (Kochia (Kochia scoparia) [11]; [21]) was 70 and the “Plant response rating, Kochia” value (Kochia (Kochia scoparia) [11]; [26]) was 80. The “Plant response rating, Foxtail, Giant” value [12, 21] was 80, the “Plant response rating, Foxtail, Giant” value [12, 26] was 90 and the “Plant response rating, Barnyardgrass” value [13, 21] was 70. The “Plant response rating, Barnyardgrass” value [13, 26] was 90, the “Plant response rating, Ragweed” value [14, 25] was 50 and the “Plant response rating, Ragweed” value [14, 26] was 70. For the same molecule, the “Plant response rating, Ryegrass, Italian” value [15, 25] was 20, the “Plant response rating, Ryegrass, Italian” value [15, 26] was 60 and the “Plant response rating, Rice” value (rice (Oryra sativa)) was 0. For the same molecule, the “Sedge, Umbrella plant response rating” value ([16]; scale of 0 to 100 where 0 is no effect and 100 is complete control) was 0, the “Plant response rating, Ducksalad” value [17] was 20 and the “Plant response rating, Barnyardgrass” value [18] was 0.
